Test results published in patent publication US8076489B2, “5-hydroxy-benzothiazole derivatives having beta-2-adrenoreceptor agonist activity” (Novartis AG, priority 2004, dated 2011).
Read-outs that look alike come from different tables or passages of the source.

Columns and labels:
β2-adrenoreceptor = β2-adrenoreceptor (Homo sapiens, UniProt P07550); test: classical filtration binding assay, β2 binding potency
Excerpt: (§1) Compounds of formulae IX are known or may be prepared using procedures that are known or are analogous to those hereinafter described in the Examples. Compounds of formula I in free, salt or solvate form are useful as pharmaceuticals. Accordingly the invention also provides a compound of formula I in free, salt or solvate form for use as a pharmaceutical. The compounds of formula I in free, salt or solvate form, hereinafter referred to alternatively as “agents of the invention”, have good β2-adreno-receptor agonist activity. The β2 agonist activity, onset of action and duration of action of the agents of the invention may be tested using the guinea pig tracheal strip in vitro assay according to the procedure of R. A. Coleman and A. T. Nials, J. Pharmacol. Methods 1989, 21, 71. The binding potency and selectivity for the β2-adrenoreceptor relative to the β1-adrenoreceptor can be measured by a classical filtration binding assay according to the procedure of Current Protocols in Pharmacology (S. J. Enna (editor-in-chief) et al, John Wiley & Son, Inc, 1998), or by cAMP determination in cells expressing β2- or β1-adreno-ceptor, according to the procedure of B. January et al, Brit. J. Pharmacol. 1998, 123, 701.
Many of the compounds have binding selectivities for the β2-adrenoreceptor relative to the β1-adrenoreceptor from 1.5 to 500.

[1] = system: guinea pig tracheal strip; test: guinea-pig tracheal strip in vitro assay (duration of action); format: cell-based
Excerpt: as §1

[2] = classical filtration binding assay, read-out: β2 binding potency, Ki

β2-adrenoreceptor, sequence (P07550 whole entry, species assumed): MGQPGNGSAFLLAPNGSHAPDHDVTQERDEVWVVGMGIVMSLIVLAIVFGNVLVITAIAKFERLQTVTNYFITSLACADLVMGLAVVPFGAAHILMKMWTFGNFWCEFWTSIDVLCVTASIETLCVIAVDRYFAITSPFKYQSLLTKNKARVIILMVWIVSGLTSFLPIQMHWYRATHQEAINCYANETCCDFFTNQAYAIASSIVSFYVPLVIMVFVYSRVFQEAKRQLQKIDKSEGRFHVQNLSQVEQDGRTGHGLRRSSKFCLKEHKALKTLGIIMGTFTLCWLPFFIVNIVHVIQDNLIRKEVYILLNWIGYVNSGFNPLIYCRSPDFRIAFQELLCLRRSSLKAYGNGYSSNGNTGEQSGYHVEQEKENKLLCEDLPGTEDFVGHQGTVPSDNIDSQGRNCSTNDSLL

Compound | Ki (β2-adrenoreceptor; [2]) [nM] | further results
CC(NCC(O)c1cc(O)cc2[nH]c(=O)sc12)C1CCCCC1 (stereo not shown) [Example 2] | 61 | 
CC(CCc1ccccc1)NCC(O)c1cc(O)cc2[nH]c(=O)sc12 (stereo not shown) [Example 9] | 16 | 
CC(C)(Cc1ccccc1)NC[C@H](O)c1cc(O)cc2[nH]c(=O)sc12 [Example 1, (R)-7-[2-(1,1-Dimethyl-2-phenyl-ethylamino)-1-hydroxy-ethyl]-5-hydroxy-3H-benzothiazol-2-one] |  | T(50%) time for inhibition of contraction to decay to 50% of its maximum value ([1]; 100 nM concentration): > 672 min
CN(C)c1ccc(CC(C)(C)NC[C@@H](O)c2cc(O)cc3[nH]c(=O)sc23)cc1 [Example 18, (S)-7-{2-[2-(4-Dimethylamino-phenyl)-1,1-dimethyl-ethylamino]-1-hydroxy-ethyl}-5-hydroxy-3H-benzothiazol-2-one] |  | T(50%) time for inhibition of contraction to decay to 50% of its maximum value ([1]; 10 nM concentration): 595 min
O=c1[nH]c2cc(O)cc(C(O)CNC3CCCC3C3CCCC3)c2s1 (stereo not shown) [Example 14] | 56 | 
CCCCOc1ccc(CC(C)(C)NCC(O)c2cc(O)cc3[nH]c(=O)sc23)cc1 (stereo not shown) [Example 4] |  | Ki (β2-adrenoreceptor): 27 nM
O=c1[nH]c2cc(O)cc(C(O)CNC3CCCC3OCc3ccccc3)c2s1 (stereo not shown) [Example 17] | 2 | 
